Data: patent US20140025310A1, “METHOD FOR DETERMINING THE EFFICACY OF A COMBINATION THERAPY” (priority 2009, published 2014)

Assays:
[1] = tested on: patient's virus; assay: Susceptibility score of the patient's virus to a drug (% activity from clinical cut-off models); set-up: species or system HIV-1; settings: 1 = fully sensitive, 0 = fully resistant
Text: Interpretation algorithms provide a resistance call for each available HIV drug. Often this is a three way classification i.e. sensitive (a score of 1), intermediate resistant (a score of 0.5) or resistant (a score of 0). For VircoType (WO 01/79540) the interpretation is for instance based on a statistical model, leading to the definition of so called clinical cut-offs (CCO), that predicts the % activity of a drug (i.e. the susceptibility score) as a function of fold change at the start of the regimen. The % activity left was calculated by dividing the predicted viral load change for the patients' virus with a certain resistance profile by the predicted viral load for a wild-type virus. This is an ordinal value that varies between 0% (or a score of 0) and 100% (or a score of 1). Based on these values, clinical cutoffs (phenotypic threshold values) were derived to classify a virus sample into maximal response, reduced response and minimal response as described in WO 2005/086061.
(§1) Therefore, statistical models were applied to handle these differences. […] E.g.

[2] = tested on: HIV-1; settings: difference in viral load response (log scale) vs ritonavir boosted lopinavir after 8 weeks of stable treatment; double robust estimation
Text: as §1

Compound | susceptibility score ([1]; Patient 1 virus) | susceptibility score ([1]; Patient 2 virus) | Weight (drug weight) [2]
O=c1[nH]cnc2c1ncn2[C@H]1CC[C@@H](CO)O1 [DDI] | 1 | – | –
O=C1Nc2ccc(Cl)cc2[C@@](C#CC2CC2)(C(F)(F)F)O1 [EFV] | – | fully active | –
CC(C)OC(=O)OCOP(=O)(CO[C@H](C)Cn1cnc2c(N)ncnc21)OCOC(=O)OC(C)C.O=C(O)/C=C/C(=O)O [TDF] | 1 | 1 | –
atazanavir [ATV/r] | – | 1 | −0.02
lopinavir [LPV/r] | 0.24 | – | 0
